In the oligonucleotide strings, read from the 5' end, every base follows the letter of its sugar. An asterisk marks phosphorothioate; unmarked linkages are phosphodiester. Other units and linkages are bracketed, terminal groups are in braces. A string of capitals states the bases alone. {NAG37} = tridentate N-acetyl-galactosamine targeting ligand, structure (NAG37)s; [invAb] = inverted abasic unit; m = 2'-O-methyl; f = 2'-fluoro
What was measured:
[1] = tested on: ANGPTL3 gene; assay: Example 12: serum triglycerides in LDLR knockout mice; format: in vivo, LDLR KO mice
Text: To evaluate the effect of RNAi agent administration in a disease model, mice having a genetic mutation for the LDL receptor (referred to herein as LDLR KO mice) were commercially obtained (The Jackson Laboratory). The LDLR KO mice are homozygous for the Ldlr^tm1Her mutation, and have elevated serum cholesterol levels, particularly when placed on a high fat diet. For three weeks prior to the onset of the study, thirty-nine (39) LDLR KO mice were placed on a high fat diet (Teklad Custom Diets TD.88137). An additional eight (8) LDLR KO mice were placed on a normal chow diet over the same three-week period. Pre-dose serum samples were taken on day −15 and day −1 after a four hour fast. At day 1, each mouse was given a single subcutaneous administration of 200 μl/30 g animal body weight containing the respective mg/kg dose of an ANGPTL3 RNAi agent in D5W (dextrose in 5% water), control (D5W) with no RNAi agent, or a control RNAi agent that included a nucleotide sequence designed to target the Hepatitis B Virus (HBV) genome. A second injection of the same formulation was administered to the animals on day 29. The dosing regimen for the study is recited in the following Table 60:
Each mouse remained on its respective diet through the duration of study. The RNAi agent tested (AD05488) included a modified sequence and an N-acetyl-galactosamine-containing targeting ligand conjugated to the 5′ terminal end of the sense strand. (See Tables 3, […] modified sequences and targeting ligand structures). The injections were performed between the skin and muscle (i.e. subcutaneous injections) into the loose skin over the neck and shoulder area. Serum was collected on days 8, 15, 22, 29 (pre-second dose), 36, 43, 50, and 57. LDLR KO mice were fasted for four hours prior to each collection. On day 15, four (4) LDLR KO mice from Groups 1, 2, and 3 (i.e., the groups being administered the high fat “Western” diet) were sacrificed after serum collection, and on day 29, an additional four (4) LDLR KO mice from Groups 1, 2, and 3 were sacrificed after serum collection, for the purpose of performing mRNA assessments.
ANGPTL3 protein levels in serum were measured by ELISA assay (R&D Systems), according to the manufacturer's recommendations. Triglycerides, total cholesterol, high-density lipoprotein (HDL), and low-density lipoprotein (LDL) in serum were measured on a Cobas® Integra 400 (Roche Diagnostics), according to the manufacturer's recommendations.
The ANGPTL3 protein levels, triglyceride levels, total cholesterol levels, HDL levels, and LDL levels for each animal were normalized. For normalization, respective levels of ANGPTL3 protein, TG, total cholesterol, HDL, or LDL for each animal at a time point was divided by the average pre-treatment level of expression in that animal (in this case the average of day −15 and day −1) to determine the ratio of expression “normalized to pre-treatment.”
Expression at a specific time point was then normalized to the D5W control group that was administered the same diet (i.e., either the high fat “Western” diet or the normal chow-fed diet) by dividing the “normalized to pre-treatment” ratio for an individual animal by the mean “normalized to pretreatment” ratio of all mice in the D5W control group on the respective same diet, resulting in expression for each time point normalized to that in the control group.

[2] = tested on: ANGPTL3 gene; assay: Example 13: serum triglycerides in HFCS diet-fed Rhesus monkeys; format: in vivo; details: for Avg TG (Triglycerides) Normalized to Pre-Treatment (Fasted): 4.0 mg/kg sc on day 1 and day 29
Protocol: ANGPTL3 RNAi agent AD05488 was further evaluated in high-fructose corn syrup (HFCS) diet-fed Rhesus monkeys. Rhesus monkeys were placed on an HFCS diet 37 days prior to dosing. These animals were known to develop increased plasma triglycerides greater than 180 mg/dL on the HFCS diet. On day 1 and again on day 29, four (4) Rhesus monkeys were administered a subcutaneous injection containing 4.0 mg/kg of ANGPTL3 RNAi agent AD05488 formulated in saline (n=4). Two additional Rhesus monkeys were administered normal saline control.
Fasted blood samples were drawn for analysis, and serum samples were analyzed on days-8 (predose), 8, 15, 21, 29, and 36. ANGPTL3 expression levels, triglycerides, total cholesterol, high-density lipoprotein (HDL), and low-density lipoprotein (LDL) in serum were measured on a Cobas® Integra 400 (Roche Diagnostics), according to the manufacturer's recommendations.
The ANGPTL3 protein levels, triglyceride levels, total cholesterol levels, HDL levels, and LDL levels for each animal were normalized. For normalization, the level of ANGPTL3 protein, triglyceride, HDL, and total cholesterol, respectively, for each animal at a time point, was divided by the pre-treatment level of expression in that animal (in this case at day −8) to determine the ratio of expression “normalized to pre-treatment.”

## AD05488: RNAi agent duplex: antisense AM07235-AS, sense AM07234-SS (antisense mU*fA*mC*fUmGfAmUfCmAfAmAfUmAfUmGfUmUfGmAfG*mC; sense {NAG37}*[invAb]*mGmCmUmCmAmAmCmAfUfAfUmUmUmGmAmUmCmAmGmUmA*[invAb])
[1]; 3.0 mg/kg on days 1 and 29 (Groups 2 and 5), LDLR KO mice
  reductions in TG levels: significant reductions
[1]; 3.0 mg/kg sc day 1, High Fat Diet, Day 8
  Avg TG (Triglycerides) Normalized to Pre-Treatment and Control (Diet Matched): 0.121
[1]; 3.0 mg/kg sc day 1, High Fat Diet, Day 15
  Avg TG (Triglycerides) Normalized to Pre-Treatment and Control (Diet Matched): 0.086
[1]; 3.0 mg/kg sc day 1, High Fat Diet, Day 22
  Avg TG (Triglycerides) Normalized to Pre-Treatment and Control (Diet Matched): 0.094
[1]; 3.0 mg/kg sc day 1, High Fat Diet, Day 29 (pre-second dose)
  Avg TG (Triglycerides) Normalized to Pre-Treatment and Control (Diet Matched): 0.096
[1]; 3.0 mg/kg sc day 1, Normal Diet, Day 8
  Avg TG (Triglycerides) Normalized to Pre-Treatment and Control (Diet Matched): 0.472
[1]; 3.0 mg/kg sc day 1, Normal Diet, Day 15
  Avg TG (Triglycerides) Normalized to Pre-Treatment and Control (Diet Matched): 0.503
[1]; 3.0 mg/kg sc day 1, Normal Diet, Day 22
  Avg TG (Triglycerides) Normalized to Pre-Treatment and Control (Diet Matched): 0.473
[1]; 3.0 mg/kg sc day 1, Normal Diet, Day 29 (pre-second dose)
  Avg TG (Triglycerides) Normalized to Pre-Treatment and Control (Diet Matched): 0.480
[1]; 3.0 mg/kg sc days 1 and 29, High Fat Diet, Day 36
  Avg TG (Triglycerides) Normalized to Pre-Treatment and Control (Diet Matched): 0.104
[1]; 3.0 mg/kg sc days 1 and 29, High Fat Diet, Day 43
  Avg TG (Triglycerides) Normalized to Pre-Treatment and Control (Diet Matched): 0.084
[1]; 3.0 mg/kg sc days 1 and 29, High Fat Diet, Day 50
  Avg TG (Triglycerides) Normalized to Pre-Treatment and Control (Diet Matched): 0.091
[1]; 3.0 mg/kg sc days 1 and 29, High Fat Diet, Day 57
  Avg TG (Triglycerides) Normalized to Pre-Treatment and Control (Diet Matched): 0.079
[1]; 3.0 mg/kg sc days 1 and 29, Normal Diet, Day 36
  Avg TG (Triglycerides) Normalized to Pre-Treatment and Control (Diet Matched): 0.548
[1]; 3.0 mg/kg sc days 1 and 29, Normal Diet, Day 43
  Avg TG (Triglycerides) Normalized to Pre-Treatment and Control (Diet Matched): 0.348
[1]; 3.0 mg/kg sc days 1 and 29, Normal Diet, Day 50
  Avg TG (Triglycerides) Normalized to Pre-Treatment and Control (Diet Matched): 0.625
[1]; 3.0 mg/kg sc days 1 and 29, Normal Diet, Day 57
  Avg TG (Triglycerides) Normalized to Pre-Treatment and Control (Diet Matched): 0.438
[2]; 4.0 mg/kg on days 1 and 29, HFCS diet-fed Rhesus monkeys
  reductions in triglyceride levels: reductions
[2]; Day 8
  Avg TG (Triglycerides) Normalized to Pre-Treatment (Fasted): 0.351
[2]; Day 15
  Avg TG (Triglycerides) Normalized to Pre-Treatment (Fasted): 0.244
[2]; Day 21
  Avg TG (Triglycerides) Normalized to Pre-Treatment (Fasted): 0.233
[2]; Day 29
  Avg TG (Triglycerides) Normalized to Pre-Treatment (Fasted): 0.302
[2]; Day 36
  Avg TG (Triglycerides) Normalized to Pre-Treatment (Fasted): 0.177
